Results taken from ChEMBL document CHEMBL1201861, “Genomics of Drug Sensitity in Cancer screening data, Wellcome Trust Sanger Institute”.

Assays:
Assay in all cases: cells
Assay type in all cases: functional, cell-based
Settings in all cases: Homo sapiens
COLO-800 = tested on: COLO-800;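 also: growth inhibition of COLO-800 cells, read out with a cell viability assay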
COR-L88 = tested on: COR-L88;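 also: growth inhibition of COR-L88 cells, read out with a cell viability assay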
D-263MG = tested on: D-263MG
DMS-79 = tested on: DMS-79;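 also: growth inhibition measured with a cell viability assay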
DSH1 = tested on: DSH1;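 also: growth inhibition of human DSH1 cells, measured with a cell viability readout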
EM-2 = tested on: EM-2;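 also: growth inhibition of EM-2 cells, read out with a cell viability assay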
ES8 = tested on: ES8;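 also: growth inhibition of human ES8 cells, read out with a cell viability assay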
EW-3 = tested on: EW-3;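 also: cell viability assay read-out, IC50 reflects inhibition of growth of the EW-3 cells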
GAK = tested on: GAK;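 also: cell growth inhibition read out by a cell viability assay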
GI-ME-N = tested on: GI-ME-N;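 also: growth inhibition of human GI-ME-N cells, read out with a cell viability assay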
GR-ST = tested on: GR-ST
HAL-01 = tested on: HAL-01;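 also: growth inhibition of human HAL-01 cells, read out with a cell viability assay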
HCC2218 = tested on: HCC2218;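 also: cell viability assay read-out, with IC50 given as the concentration that inhibits growth of the cell line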
HL-60 = tested on: HL-60;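 also: growth inhibition of human HL-60 cells, read out with a cell viability assay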
HOP-62 = tested on: HOP-62;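 also: cell growth inhibition determined with a viability assay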
IST-MEL1 = tested on: IST-MEL1;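 also: growth inhibition of the cell line, read out with a cell viability assay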
J-RT3-T3-5 = tested on: J-RT3-T3-5;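 also: cell viability assay measuring growth inhibition of human J-RT3-T3-5 cells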
JAR = tested on: JAR;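 also: growth inhibition of human JAR cells determined with a cell viability assay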
K5 = tested on: K5
KALS-1 = tested on: KALS-1;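 also: growth inhibition of KALS-1 cells, determined with a cell viability assay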
KINGS-1 = tested on: KINGS-1;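 also: cell viability assay measuring suppression of KINGS-1 cell growth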
KMOE-2 = tested on: KMOE-2;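 also: growth inhibition of human KMOE-2 cells, read out with a cell viability assay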
KS-1 = tested on: KS-1;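 also: growth inhibition of KS-1 cells, read out with a cell viability assay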
KU812 cell line = tested on: KU812 cell line;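 also: growth inhibition of KU812 cells, read out with a cell viability assay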
KY821 = tested on: KY821;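 also: growth inhibition of human KY821 cells, read out by a cell viability assay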
LB373-MEL-D = tested on: LB373-MEL-D;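 also: growth inhibition of the cell line, read out in a cell viability assay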
LB771-HNC = tested on: LB771-HNC;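 also: growth inhibition of LB771-HNC human cells, read out with a cell viability assay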
LNCaP-Clone-FGC = tested on: LNCaP-Clone-FGC
MHH-NB-11 = tested on: MHH-NB-11;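 also: growth inhibition of human MHH-NB-11 cells, read out by a cell viability assay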
MLMA = tested on: MLMA;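 also: growth inhibition of MLMA cells (human), determined through a cell viability readout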
MOLT-16 = tested on: MOLT-16;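 also: growth inhibition of human MOLT-16 cells, read out with a cell viability assay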
MOLT-4 = tested on: MOLT-4;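 also: growth inhibition of MOLT-4 cells, determined with a cell viability readout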
MPP-89 = tested on: MPP-89;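 also: growth inhibition of human MPP-89 cells, read out with a cell viability assay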
MS-1 = tested on: MS-1;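 also: growth inhibition of MS-1 cells, read out by cell viability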
MSTO-211H = tested on: MSTO-211H
NB10 = tested on: NB10;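 also: growth inhibition of NB10 cells, read out by a cell viability assay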
NB13 = tested on: NB13;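 also: cell viability readout measuring growth inhibition of human NB13 cells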
NCI-H1299 = tested on: NCI-H1299;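 also: growth inhibition of human NCI-H1299 cells, read out by a cell viability assay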
NCI-H1304 = tested on: NCI-H1304;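 also: growth inhibition of the cancer cell line, measured in a cell viability assay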
NCI-H1648 = tested on: NCI-H1648;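 also: cell viability assay measuring inhibition of NCI-H1648 cell growth, from the Sanger screening data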
NCI-H1650 = tested on: NCI-H1650;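 also: growth inhibition of human NCI-H1650 cells measured by a cell viability assay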
NCI-H2126 = tested on: NCI-H2126;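 also: growth inhibition of the cancer cell line, determined with a cell viability readout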
NCI-H510A = tested on: NCI-H510A;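 also: growth inhibition of NCI-H510A cells, read out with a cell viability assay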
NCI-H747 = tested on: NCI-H747;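 also: growth inhibition of human NCI-H747 cells, read out by a cell viability assay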
NCI-H82 = tested on: NCI-H82;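 also: growth inhibition of NCI-H82 cells, measured with a cell viability readout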
SNU1 = tested on: SNU1;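 also: growth inhibition of human NCI-SNU-1 cells, measured with a cell viability assay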
SNU-5 = tested on: SNU-5;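 also: cell viability readout used to measure growth inhibition in human NCI-SNU-5 cells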
OCUB-M = tested on: OCUB-M;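 also: growth inhibition of the cancer cell line, read out through a cell viability assay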
OS-RC-2 = tested on: OS-RC-2;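 also: growth inhibition of human OS-RC-2 cells, measured by a cell viability assay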
SCC-15 = tested on: SCC-15;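 also: growth inhibition of SCC-15 cells, read out with a cell viability assay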
SF-539 = tested on: SF-539;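 also: Read-out is a cell viability assay, with IC50 reflecting inhibition of cell growth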
SK-NEP-1 = tested on: SK-NEP-1;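 also: growth inhibition of human SK-NEP-1 cells, read out by a cell viability assay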
SK-UT-1 = tested on: SK-UT-1;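 also: growth inhibition of SK-UT-1 cells, measured by a cell viability assay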
8-MG-BA = tested on: 8-MG-BA;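 also: growth inhibition of 8-MG-BA cells, read out with a cell viability assay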
A3-KAW = tested on: A3-KAW
ALL-PO = tested on: ALL-PO
AM-38 = tested on: AM-38
BT-474 = tested on: BT-474
BV-173 = tested on: BV-173
Becker = tested on: Becker
C8166 = tested on: C8166
TE-5 = tested on: TE-5
TE-9 = tested on: TE-9
U-266 = tested on: U-266
VA-ES-BJ = tested on: VA-ES-BJ
no-10 = tested on: no-10

Fc1cc(-c2cc[nH]/c(=N/c3ccc(-n4cnc(N5CCOCC5)n4)cc3)n2)cc(N2CCOCC2)c1
IC50 (COLO-800): 1990 nM
IC50 (COR-L88): 2570 nM
IC50 (D-263MG): 725 nM
IC50 (DMS-79): 4280 nM
IC50 (DSH1): 709 nM
IC50 (EM-2): 1150 nM
IC50 (ES8): 135 nM
IC50 (EW-3): 4230 nM
IC50 (GAK): 790 nM
IC50 (GI-ME-N): 1440 nM
IC50 (GR-ST): 647 nM
IC50 (HAL-01): 704 nM
IC50 (HCC2218): 1090 nM
IC50 (HL-60): 546 nM
IC50 (HOP-62): 248 nM
IC50 (IST-MEL1): 894 nM
IC50 (J-RT3-T3-5): 689 nM
IC50 (JAR): 3300 nM
IC50 (K5): 830 nM
IC50 (KALS-1): 451 nM
IC50 (KINGS-1): > 5120 nM
IC50 (KMOE-2): 1070 nM
IC50 (KS-1): 159 nM
IC50 (KU812 cell line): 338 nM
IC50 (KY821): > 5120 nM
IC50 (LB373-MEL-D): 2190 nM
IC50 (LB771-HNC): 77.7 nM
IC50 (LNCaP-Clone-FGC): 903 nM
IC50 (MHH-NB-11): 936 nM
IC50 (MLMA): 484 nM
IC50 (MOLT-16): 733 nM
IC50 (MOLT-4): 716 nM
IC50 (MPP-89): 3820 nM
IC50 (MS-1): 2630 nM
IC50 (MSTO-211H): > 5120 nM
IC50 (NB10): 1300 nM
IC50 (NB13): 4910 nM
IC50 (NCI-H1299): 366 nM
IC50 (NCI-H1304): 1430 nM
IC50 (NCI-H1648): 473 nM
IC50 (NCI-H1650): 624 nM
IC50 (NCI-H2126): 536 nM
IC50 (NCI-H510A): > 5120 nM
IC50 (NCI-H747): 1050 nM
IC50 (NCI-H82): > 5120 nM
IC50 (SNU1): 458 nM
IC50 (SNU-5): > 5120 nM
IC50 (OCUB-M): 3030 nM
IC50 (OS-RC-2): 390 nM
IC50 (SCC-15): 803 nM
IC50 (SF-539): 673 nM
IC50 (SK-NEP-1): 550 nM
IC50 (SK-UT-1): 61.6 nM
IC50 (8-MG-BA): 116 nM
IC50 (A3-KAW): 294 nM
IC50 (ALL-PO): 671 nM
IC50 (AM-38): 1110 nM
IC50 (BT-474): 1130 nM
IC50 (BV-173): 736 nM
IC50 (Becker): 1060 nM
IC50 (C8166): 445 nM
IC50 (TE-5): 339 nM
IC50 (TE-9): 69.2 nM
IC50 (U-266): 882 nM
IC50 (VA-ES-BJ): 205 nM
IC50 (no-10): 1840 nM

CCNC(=O)c1noc(-c2cc(C(C)C)c(O)cc2O)c1-c1ccc(CN2CCOCC2)cc1 [LUMINESPIB]
IC50 (COLO-800): > 256 nM
IC50 (COR-L88): 171 nM
IC50 (D-263MG): 56.8 nM
IC50 (DMS-79): > 256 nM
IC50 (DSH1): 62.7 nM
IC50 (EM-2): > 256 nM
IC50 (ES8): 35.4 nM
IC50 (EW-3): 175 nM
IC50 (GAK): 57.3 nM
IC50 (GI-ME-N): 74.3 nM
IC50 (GR-ST): 102 nM
IC50 (HAL-01): > 256 nM
IC50 (HCC2218): 100 nM
IC50 (HL-60): 18.1 nM
IC50 (HOP-62): 15.4 nM
IC50 (IST-MEL1): 8.52 nM
IC50 (J-RT3-T3-5): 89.7 nM
IC50 (JAR): > 256 nM
IC50 (K5): 13.1 nM
IC50 (KALS-1): 14.7 nM
IC50 (KINGS-1): 24.3 nM
IC50 (KMOE-2): 57.5 nM
IC50 (KS-1): 8.59 nM
IC50 (KU812 cell line): 36.8 nM
IC50 (KY821): > 256 nM
IC50 (LB373-MEL-D): > 256 nM
IC50 (LB771-HNC): > 256 nM
IC50 (LNCaP-Clone-FGC): 81.7 nM
IC50 (MHH-NB-11): 254 nM
IC50 (MLMA): 46.1 nM
IC50 (MOLT-16): 17.9 nM
IC50 (MOLT-4): 48 nM
IC50 (MPP-89): 97.2 nM
IC50 (MS-1): 186 nM
IC50 (MSTO-211H): > 256 nM
IC50 (NB10): 237 nM
IC50 (NB13): 42.3 nM
IC50 (NCI-H1299): 11.5 nM
IC50 (NCI-H1304): 82.7 nM
IC50 (NCI-H1648): 15 nM
IC50 (NCI-H1650): 16.5 nM
IC50 (NCI-H2126): > 256 nM
IC50 (NCI-H510A): > 256 nM
IC50 (NCI-H747): 45.7 nM
IC50 (NCI-H82): > 256 nM
IC50 (SNU1): 78.9 nM
IC50 (SNU-5): > 256 nM
IC50 (OCUB-M): 39.6 nM
IC50 (OS-RC-2): 34 nM
IC50 (SCC-15): 28 nM
IC50 (SF-539): > 256 nM
IC50 (SK-NEP-1): 159 nM
IC50 (SK-UT-1): 32.2 nM
IC50 (8-MG-BA): 18.8 nM
IC50 (A3-KAW): 227 nM
IC50 (ALL-PO): 17.3 nM
IC50 (AM-38): 13 nM
IC50 (BT-474): 70.6 nM
IC50 (BV-173): 34.3 nM
IC50 (Becker): 15.1 nM
IC50 (C8166): 11.3 nM
IC50 (TE-5): > 256 nM
IC50 (TE-9): 42.4 nM
IC50 (U-266): 145 nM
IC50 (VA-ES-BJ): 42.9 nM
IC50 (no-10): 30.2 nM
